By Ki is commonly meant the dissociation constant of the complex between target and ligand, obtained from inhibition or displacement. Higher therefore signals a looser hold on the target.

For this test, the target named is T1, human MR (Homo sapiens, UniProt P08235).
T1 construct: The full length human MR gene is cloned from a human kidney or human brain cDNA library; made in house; host or cells: Sf9 insect cells (baculovirus, pAcHLT transfer vector)
T1 sequence (P08235 1-984): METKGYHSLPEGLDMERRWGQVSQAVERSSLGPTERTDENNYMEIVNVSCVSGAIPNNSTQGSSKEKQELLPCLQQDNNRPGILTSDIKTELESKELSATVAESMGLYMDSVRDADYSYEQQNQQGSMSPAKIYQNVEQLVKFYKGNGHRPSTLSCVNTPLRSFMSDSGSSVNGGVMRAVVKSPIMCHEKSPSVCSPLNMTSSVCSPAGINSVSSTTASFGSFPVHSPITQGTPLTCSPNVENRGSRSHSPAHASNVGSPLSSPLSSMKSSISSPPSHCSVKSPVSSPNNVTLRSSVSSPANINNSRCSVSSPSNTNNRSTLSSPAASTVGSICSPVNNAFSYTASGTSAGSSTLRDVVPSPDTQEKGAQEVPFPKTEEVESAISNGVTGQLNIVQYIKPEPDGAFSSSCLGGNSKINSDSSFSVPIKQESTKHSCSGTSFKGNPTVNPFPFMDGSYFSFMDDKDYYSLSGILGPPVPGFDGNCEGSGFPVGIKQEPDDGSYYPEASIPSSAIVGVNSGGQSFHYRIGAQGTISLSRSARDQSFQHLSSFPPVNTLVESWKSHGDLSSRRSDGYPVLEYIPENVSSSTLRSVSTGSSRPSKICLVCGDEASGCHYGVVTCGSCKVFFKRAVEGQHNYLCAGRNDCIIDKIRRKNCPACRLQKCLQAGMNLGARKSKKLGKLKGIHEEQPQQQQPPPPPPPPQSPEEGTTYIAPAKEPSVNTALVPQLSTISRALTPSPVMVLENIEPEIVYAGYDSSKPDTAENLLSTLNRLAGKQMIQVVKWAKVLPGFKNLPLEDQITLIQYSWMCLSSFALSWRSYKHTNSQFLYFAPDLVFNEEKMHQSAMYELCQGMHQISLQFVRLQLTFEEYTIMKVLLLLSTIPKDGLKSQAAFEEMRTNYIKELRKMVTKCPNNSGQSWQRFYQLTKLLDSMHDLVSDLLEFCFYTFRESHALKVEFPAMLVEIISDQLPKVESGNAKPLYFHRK
Briefly: Mineralocorticoid Receptor Binding Assay ([3H]-aldosterone displacement). The note with it: full length human MR expressed in Sf9 cells, 0.5 nM [3H]-aldosterone. On the procedure: Mineralocorticoid Receptor Binding Assay:
The full length human MR gene is cloned from a human kidney or human brain cDNA library. Briefly, using synthetic oligonucleotide primers (Eli Lilly and Company, Indianapolis) directed to nucleotides 20-54 and 3700-3666 of the human MR, polymerase chain reaction (PCR) is performed under standard conditions using a human cDNA library. The PCR reaction is performed in a final volume of 50 μl containing about 1 μl of a 50× stock solution of polymerase; about 1 μl of a 50× stock solution of dNTP; about 5 μl of an appropriate PCR buffer; about 1 μl of each primer; about 5 μl of a H. kidney or H. brain cDNA library; and about 36 μl of water. The reaction is allowed to denature for about 30 seconds at 95 degrees Celsius, anneal for about 30 seconds at 55 degrees Celsius, and extend for about 5 minutes at 72 degrees Celsius, the sequence being repeated for a total of about 35 cycles. The desired PCR product (3.68 Kb) is confirmed by gel electrophoresis and subsequently cut from the gel and stored at about −20 degrees Celsius until extraction. To extract the cDNA product from the agarose gel, the QIAEX II Gel Extraction protocol (QIAGEN, Inc.) is employed according to the manufacturer's instructions. Following extraction, the MR cDNA is cloned into an appropriate cloning vector (Zero Blunt TOPO PCR Cloning Kit (Invitrogen, Inc.) and a pAcHLT-baculovirus transfer vector (B.D./Pharminogen), then expressed in SF9 insect cells, essentially according to manufacturer's instructions. Sf9 cells are grown at a scale where gram quantity cell pellets are obtained for subsequent use in the MR binding assay. Harvested cell pellets are lysed by repeated freeze-thaw cycles (about 4) in a suitable lysis buffer then centrifuged at about 1×10^3 G (with the supernatant being saved for future assays).
MR binding assays are performed in a final total volume of about 250 μl containing about 20-25 μg of protein and 0.5 nM of [^3H]-aldosterone plus varying concentrations of test compound or vehicle. The assay binding buffer consists of 30 mM sodium molybdate, 30 mM of TRIS-HCl, 5 mM sodium phosphate, 5 mM sodium pyrophosphate, and about 10% glycerol, pH=7.5.
Briefly, assays are prepared at RT in 96-well Falcon 3072 plates, each well containing 210 μl of binding buffer, 10 μl of [^3H]-aldosterone, 10 μl of test compound/vehicle, and 20 μl of the resuspended receptor protein extract. Incubations are carried out at 4 degrees Celsius with shaking for about 16 hours. 200 μl aliquots of each incubation are filtered onto Millipore HA 0.45 micron 96-well filter plates, pre-moistened with cold 30 mM TRIS-HCl. The filter plates are suctioned dry with vacuum and immediately washed 3× with cold 30 mM TRIS-HCl. The plates are then punched out and the amount of receptor-ligand complex is determined by liquid scintillation counting using 4 ml of Ready Protein Plus™ liquid scintillation cocktail.
IC50 values (defined as the concentration of test compound required to decrease [^3H]-aldosterone binding by 50%) are then determined. Ki values for each respective test compound can then be calculated by application of the Cheng-Prusoff equation as described in Cheng et al., Relationship Between The Inhibition Constant (Ki) and The Concentration of Inhibitor Which Causes 50% Inhibition (IC50) of an Enzymatic Reaction, Biochem. Pharmacol., 22: 3099-31088; (1973).
The compound `CCOc1cccc(N2C(=O)C(c3cc(C)c(O)c(C)c3)(c3cc(C)c(O)c(C)c3)c3ccccc32)c1` [Example 137, 1-(3-Ethoxy-phenyl)-3,3-bis-(4-hydroxy-3,5-dimethyl-phenyl)-1,3-dihydro-indol-2-one] gave an inhibition constant (Ki) of at most 500 nM.

`Cc1cc(C2(c3cc(C)c(O)c(C)c3)C(=O)N(Cc3c(F)cccc3F)c3ccccc32)cc(C)c1O` [Example 115, 1-(2,6-Difluoro-benzyl)-3,3-bis-(4-hydroxy-3,5-dimethyl-phenyl)-1,3-dihydro-indol-2-one]: the Ki is at most 500 nM.

Compound `Cc1cc(C2(c3cc(C)c(O)c(C)c3)C(=O)N(Cc3noc(-c4ccco4)n3)c3ccccc32)cc(C)c1O` [Example 87, 1-(5-Furan-2-yl-[1,2,4]oxadiazol-3-ylmethyl)-3,3-bis-(4-hydroxy-3,5-dimethyl-phenyl)-1,3-dihydro-indol-2-one] showed a Ki of at most 500 nM.

For `C=C(C)CN1C(=O)C(c2cc(C)c(O)c(C)c2)(c2cc(C)c(O)c(C)c2)c2ccccc21` [Example 106, 3,3-Bis-(4-hydroxy-3,5-dimethyl-phenyl)-1-(2-methyl-allyl)-1,3-dihydro-indol-2-one], the Ki is at most 500 nM.

In turn, `COc1ccc(CN2C(=O)C(c3cc(C)c(O)c(C)c3)(c3cc(C)c(O)c(C)c3)c3ccccc32)cc1` [Example 1, 3,3-Bis-(4-hydroxy-3,5-dimethyl-phenyl)-1-(4-methoxy-benzyl)-1,3-dihydro-indol-2-one] registered an inhibition constant Ki of at most 500 nM.

Consider `Cc1cc(C2(c3ccc(O)cc3)C(=O)N(Cc3ccccc3Cl)c3ccccc32)cc(C)c1O` (stereo not drawn) [Example 36, 1-(2-Chloro-benzyl)-3-(4-hydroxy-3,5-dimethyl-phenyl)-3-(4-hydroxy-phenyl)-1,3-dihydro-indol-2-one], for which the Ki was at most 500 nM.

As to `Cc1cc(C2(c3cc(C)c(O)c(C)c3)C(=O)N(Cc3ccc(-c4csnn4)cc3)c3ccccc32)cc(C)c1O` [Example 84, 3,3-Bis-(4-hydroxy-3,5-dimethyl-phenyl)-1-(4-[1,2,3]thiadiazol-4-yl-benzyl)-1,3-dihydro-indol-2-one], the Ki is at most 500 nM.

The compound `CCOC(=O)CN1C(=O)C(c2cc(C)c(O)c(C)c2)(c2cc(C)c(O)c(C)c2)c2ccccc21` [Example 109, [3,3-Bis-(4-hydroxy-3,5-dimethyl-phenyl)-2-oxo-2,3-dihydro-indol-1-yl]-acetic acid ethyl ester] registered a Ki of at most 500 nM.

Regarding `Cc1cc(C2(c3cc(C)c(O)c(C)c3)C(=O)N(C)c3ccccc32)cc(C)c1O` [Example 4, 3,3-Bis-(4-hydroxy-3,5-dimethyl-phenyl)-1-methyl-1,3-dihydro-indol-2-one], the Ki is at most 1000 nM.

`Cc1cc(C2(c3cc(C)c(O)c(C)c3)C(=O)N(Cc3ccccc3-c3ccccc3)c3ccccc32)cc(C)c1O` [Example 54, 1-Biphenyl-2-ylmethyl-3,3-bis-(4-hydroxy-3,5-dimethyl-phenyl)-1,3-dihydro-indol-2-one] displayed a Ki of at most 500 nM.

For the compound `COC(=O)c1ccc(CN2C(=O)C(c3cc(C)c(O)c(C)c3)(c3cc(C)c(O)c(C)c3)c3ccccc32)o1` [Example 108, 5-[3,3-Bis-(4-hydroxy-3,5-dimethyl-phenyl)-2-oxo-2,3-dihydro-indol-1-ylmethyl]-furan-2-carboxylic acid methyl ester], the inhibition constant Ki is at most 500 nM.

Compound `Cc1ccc2c(c1)C(c1cc(C)c(O)c(C)c1)(c1cc(C)c(O)c(C)c1)C(=O)N2Cc1csc(-c2ccccc2)n1` [Example 92, 3,3-Bis-(4-hydroxy-3,5-dimethyl-phenyl)-5-methyl-1-(2-phenyl-thiazol-4-ylmethyl)-1,3-dihydro-indol-2-one] displayed a Ki of at most 500 nM.

Consider `Cc1cc(C2(c3cc(C)c(O)c(C)c3)C(=O)N(Cc3ccccc3[N+](=O)[O-])c3ccccc32)cc(C)c1O` [Example 65, 3,3-Bis-(4-hydroxy-3,5-dimethyl-phenyl)-1-(2-nitro-benzyl)-1,3-dihydro-indol-2-one], for which the Ki is at most 500 nM.

As to `Cc1cc(C2(c3cc(C)c(O)c(C)c3)C(=O)N(c3ccc(C(F)(F)F)cc3)c3ccccc32)cc(C)c1O` [Example 131, 3,3-Bis-(4-hydroxy-3,5-dimethyl-phenyl)-1-(4-trifluoromethyl-phenyl)-1,3-dihydro-indol-2-one], the inhibition constant Ki was at most 500 nM.

In turn, `COC(=O)c1ccc(CN2C(=O)C(c3cc(C)c(O)c(C)c3)(c3cc(C)c(O)c(C)c3)c3ccccc32)cc1` [Example 3, 4-[3,3-Bis-(4-hydroxy-3,5-dimethyl-phenyl)-2-oxo-2,3-dihydro-indol-1-ylmethyl]-benzoic acid methyl ester] showed a Ki of at most 500 nM.

As to `Cc1cc(C2(c3ccc(O)c(C)c3)C(=O)N(Cc3ccccc3)c3ccccc32)ccc1O` [Example 12, 1-Benzyl-3,3-bis-(4-hydroxy-3-methyl-phenyl)-1,3-dihydro-indol-2-one], the inhibition constant Ki is at most 500 nM.

Take `Cc1cc(C2(c3cc(C)c(O)c(C)c3)C(=O)N(c3cccc(F)c3)c3ccccc32)cc(C)c1O` [Example 130, 1-(3-Fluoro-phenyl)-3,3-bis-(4-hydroxy-3,5-dimethyl-phenyl)-1,3-dihydro-indol-2-one]: the Ki is at most 500 nM.

In turn, `Cc1cc(C2(c3cc(C)c(O)c(C)c3)C(=O)N(CCC3CCCCC3)c3ccccc32)cc(C)c1O` [Example 110, 1-(2-Cyclohexyl-ethyl)-3,3-bis-(4-hydroxy-3,5-dimethyl-phenyl)-1,3-dihydro-indol-2-one] showed a Ki of at most 500 nM.

The compound `Cc1cc(C2(c3cc(C)c(O)c(C)c3)C(=O)N(c3cccc(C(F)(F)F)c3)c3ccccc32)cc(C)c1O` [Example 127, 3,3-Bis-(4-hydroxy-3,5-dimethyl-phenyl)-1-(3-trifluoromethyl-phenyl)-1,3-dihydro-indol-2-one] gave a Ki of at most 500 nM.

As to `Cc1cc(C2(c3cc(C)c(O)c(C)c3)C(=O)N(CC3CCCCC3)c3ccccc32)cc(C)c1O` [Example 6, 1-Cyclohexylmethyl-3,3-bis-(4-hydroxy-3,5-dimethyl-phenyl)-1,3-dihydro-indol-2-one], the Ki is at most 500 nM.

`Cc1cc(C2(c3cc(C)c(O)c(C)c3)C(=O)N(Cc3cccc(C)c3F)c3ccccc32)cc(C)c1O` [Example 70, 1-(2-Fluoro-3-methyl-benzyl)-3,3-bis-(4-hydroxy-3,5-dimethyl-phenyl)-1,3-dihydro-indol-2-one] had an inhibitory constant (Ki) of at most 500 nM.

The values are drawn from patent publication US7250442B2, “Dihydroindol-2-one derivatives as steroid hormone nuclear receptor modulators” (Eli Lilly and Company, priority 2003, dated 2007).
